Data on one compound can be found in paper PMC7395176, “Retromer stabilization results in neuroprotection in a model of Amyotrophic Lateral Sclerosis” (Nature Communications, 2020).

Series [1] concerns SOD1^G93A aggregates. The series can be described thus: Treatment of G93A mice from day 83 to day 103: motor performance, SOD1 aggregates (blue-native PAGE). Format: in vivo. The following applies: 10 mg/kg daily. The text has this:
SOD1 mutations increase its propensity to aggregate in cells. We checked whether compound 2a could reduce the accumulation of SOD1^G93A aggregates in vivo. Starting at postnatal day 83, we injected G93A mice and WT littermates daily with compound 2a. We scored motor performances in vehicle- and compound 2a-treated G93A mice until day 103. […] We resolved SC protein extracts by blue-native polyacrylamide gel electrophoresis, and probing them with anti-SOD1 antibodies we observed high molecular weight smears in G93A mice that were absent in WT litters. The intensity of such high MW entities was lowered in G93A mice treated with compound 2a (Supplementary Fig. 13b, c).
G93A mice and their WT litters were injected daily with vehicle or compound 2a (10 mg/kg, from day 83 to day 103). […] We incubated 250 µL of each extract with 100 mM Iodoacetamide (Sigma–Aldrich). […]
n=4 independent mice/group, data are collected from 1 experiment). […] Dividing black linesmark lanes cropped from the same filter;c, quantifications of the mutant forms of the SOD1 from mice treated with sham or with compound 2a (G93A-v: n=6 independent mice, G93A-2a: n=6 independent mice, data are derived from 2 independent experiments). […]

Series [2] concerns G93A mice. The series can be described thus: Daily treatment of G93A and WT mice, day 30 to day 100: tolerability, rotarod, histopathology. Type of series: in vivo. How it is done: We administered compound 2a (10 mg/kg, i.p.) daily to G93A and WT littermates between day 30 and day 100. […] We next assessed the pathological degeneration of fibers in sciatic nerves of G93A mice treated with compound 2a. We observed axonal degeneration, with a substantial reduction of myelinated nerve fibers in vehicle-treated G93A mice (Fig. 5a, b)[39]. […] Using Luxol Fast Blue (LFB) to label lipoproteins of the myelin sheath, we analyzed myelination.
Mice were maintained under pathogen-free conditions at San Raffaele Hospital mouse facility (Milan, Italy). All efforts were made to minimize animal suffering and to reduce the number of mice used in accordance with the European Communities Council Directive of 24 November 1986 (86/609/EEC). The Ethics Review Committee approved experimental protocols according guidelines from the Italian Ministry of Health and from the Institutional Animal Care and Use Committee of the San Raffaele Scientific Institute (protocol number 704/2015PR). Transgenic mutant SOD1 mice carrying the SOD1^G93A allele (strain B6SJL-TgN[SOD1G93A]1GUR)[75] were purchased from Jackson laboratories, while C57BL/6J mice, used for breeding and experimental purposes, were purchased from Charles River (Italy). Both transgenic and WT mice had food and water freely available in the home-cage. The holding room was on a 12-h light–dark cycle, the temperature of the room was 22 ± 0.2 °C. Starting from day 30 we intraperitoneally injected compound 2a (10 mg/Kg) or vehicle in G93A mice as well as in C57BL/6J mice for 70 days. Additional experiments were performed injecting mice from day 83 to day 103. An operator blind to the treatment performed injections and manipulation of mice. At the day of the sacrifice, mice received an overdose of anesthetic drugs and they were perfused via vascular system with saline followed by 70–80 ml 4% paraformaldehyde (PF) in PBS, pH 7.2 (Sigma–Aldrich). Spinal cords were coronally sliced at ~6-mm thickness and postfixed in 4% PF in PBS, pH 7.2 for 12 h at +4 °C. Tissues were cryoprotected in PBS 1X/30% Sucrose (Sigma–Aldrich), embedded in OCT inclusion media and stored at −80 °C before processing. Lumbar spinal cords were 12-µm sectioned, labelled and digital images were acquired every 330 µm in a region encompassing 2.4 mm of the lumbar spinal cord. We determined numbers of mice by preliminary results or literature precedent.
Motor activity of mice receiving compound 2a or vehicle was assessed on 50-, 60-, 70-, 80-, 90-, and 100-days-old animals. Briefly, mice were trained 1 min on a static rotor and 1 min at constant speed (4 rpm) for two times and then we ran two trials performed over two consecutive days (one per day). Each trial consisted of 6-test sessions with 15 min interval between sessions. For each session, we placed mice on an accelerating rotor (4–40 rpm) and the latency to fall was recorded, with a maximum limit for individual animal set at 600 seconds.
Quantification of nerves degeneration was done on sciatic nerves obtained from saline-perfused mice. Tissues were fixed in 2% buffered glutaraldehyde (Sigma–Aldrich), postfixed in 1% osmium tetroxide and cut to obtain 1 µm thick sections. We stained sections with toluidine blue and specimens were blindly examined by light microscopy using ×40 objective. For each nerve, we merged images to obtain the entire nerve cross section. Five consecutive nonoverlapping semi-thin sections from each sample were analyzed with NHI-Image J software (US National Institutes of Health). Degenerating fibers were counted in the entire nerve cross section.
Quantification of myelin was done on sagittal sciatic nerves by Luxol fast blue (LFB). Briefly, nerve sections were incubated the ethanol series before receiving 0.1% LFB overnight at 60 °C. Sections were then incubated 5 min in 0.05% lithium carbonate before receiving the ethanol series and xylene. Bright field microcopy of nerves at ×63 was used for quantification. […]
In general terms: Falling from the rotarod earlier than controls is read as motor impairment.

On to `NC(N)=N/N=C/c1cccc(/C=N/N=C(N)N)c1` [compound 2a, phenyl-1,3-bis-guanylhydrazone], for which the “motor deficits (latency to fall)” value in series [1] is reported as “general attenuation of motor deficits”. Besides, in series [1] (SC extracts), the “intensity of high MW SOD1 entities (blue-native PAGE)” value is given as “lowered”. Also, the distress or pain result in series [2] (10 mg/kg i.p. daily, day 30 to day 100) is given as “did not observe distress or undesirable pain”. Moreover, the “progression of motor deficits (latency to fall, rotarod)” value in series [2] (G93A mice, 10 mg/kg i.p. daily, day 30 to day 100) is listed as “significantly slowed down”. The “reduction of degenerating fibers in sciatic nerves” value in series [2] (G93A mice, 10 mg/kg, day 100) is recorded as around 30%. The “MNs in ventral horns of lumbar SCs” value in series [2] (G93A mice, 10 mg/kg, day 100, versus vehicle-treated G93A mice) is “more MNs”. For the same compound, in series [2] (SC ventral horn, G93A mice, 10 mg/kg, day 100, versus vehicle), the “total number of Iba1+ cells” value is reported as “Neither CD14 levels nor the total number of Iba1^+ cells changed”. The body weight entry in series [2] (WT and G93A mice, 10 mg/kg i.p. daily, day 30 to day 100) is on record as “slight, but not significant reduction of body weight”. For the same compound, the locomotion performances entry in series [2] (WT mice, 10 mg/kg i.p. daily, rotarod) is given as “did not observe alterations of locomotion performances”. Besides, the CD14 levels entry in series [2] (lumbar SCs, G93A mice, 10 mg/kg, day 100, versus vehicle) is given as “Neither CD14 levels nor the total number of Iba1^+ cells changed”. The “integrity of myelin (MBP, NF-M labelling)” value in series [2] (sciatic nerves, G93A mice) is listed as “preserved the integrity of myelin”. Also, the “demyelination (Luxol Fast Blue)” value in series [2] (sciatic nerves, G93A mice, versus vehicle-treated G93A mice) is “substantial reduction of demyelination”.
